Test results reported in patent US6355799B1, “Substituted benzene compounds, process for their preparation, and herbicidal and defoliant compositions containing them” (ISK Americas Incorporated, priority 1997, dated 2002).

How the values were obtained:
Format in all cases: in vivo
[1] = test system: redroot pigweed (Amaranthus retroflexus, AMARE); assay: Pre-emerge test, greenhouse herbicide activity screening; settings: rated 14 days after application, 0 = no damage, 100 = complete death
Procedure, shortened: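 Visual ratings on a 0-100 scale (0 no damage, 100 all plants dead) were taken at 14 days after treatment. Rates of 15-1000 g ai/ha in acetone, 187 l/ha, were sprayed onto soil one day after planting (pre-emerge) or onto 2-3 leaf plants with 0.25% v/v surfactant (post-emerge).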

[2] = test system: barnyardgrass (Echinochloa crus-galli, ECHCG); assay: as above; settings: rated 14 days after application, 0 = no damage, 100 = complete death
Procedure, shortened: (§1)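 Compounds in acetone were track-sprayed at 15–1000 g ai/ha: pre-emergence onto soil sown the previous day, then top-watered to incorporate and later bottom-watered; post-emergence onto 2–3 leaf plants with 0.25% v/v surfactant, bottom-watered only. Ratings on a 0–100 phytotoxicity scale were taken at day 14.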

[3] = test system: green foxtail (Setaria viridis, SETVI); assay: as above; settings: rated 14 days after application, 0 = no damage, 100 = complete death
Procedure, shortened: as §1

[4] = test system: ivyleaf morningglory (Ipomoea hederacea, IPOHE); assay: as above; settings: rated 14 days after application, 0 = no damage, 100 = complete death
Procedure, shortened: as §1

[5] = test system: johnsongrass (Sorghum halepense, SORHA); assay: as above; settings: rated 14 days after application, 0 = no damage, 100 = complete death
Procedure, shortened: as §1

[6] = test system: lambsquarters (Chenopodium album, CHEAL); assay: as above; settings: rated 14 days after application, 0 = no damage, 100 = complete death
Procedure, shortened: as §1

[7] = test system: large crabgrass (Digitaria sanguinalis, DIGSA); assay: as above; settings: rated 14 days after application, 0 = no damage, 100 = complete death
Procedure, shortened: as §1

[8] = test system: sicklepod (Cassia obtusifolia, CASOB); assay: as above; settings: rated 14 days after application, 0 = no damage, 100 = complete death
Procedure, shortened: as §1

[9] = test system: velvetleaf (Abutilon theophrasti, ABUTH); assay: as above; settings: rated 14 days after application, 0 = no damage, 100 = complete death
Procedure, shortened: as §1

[10] = test system: field corn (Zea mays L., var. Dekalb 535, CORN); assay: Pre-emerge test, crop safety; settings: rated 14 days after application, 0 = no damage, 100 = complete death
Procedure, shortened: (§2)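 Compounds in acetone were track-sprayed at 187 l/ha, 15–1000 g ai/ha, onto sandy loam pots. Pre-emerge seeds were sown one day before spraying, with surface watering afterwards. Post-emerge plants were at the 2–3 leaf stage and sprayed with 0.25% v/v non-ionic surfactant. Injury was rated 0–100 at 14 days.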

[11] = test system: upland rice (Oryza sp., var. Tebonnet, RICE); assay: Pre-emerge test, crop safety; settings: rated 14 days after application, 0 = no damage, 100 = complete death
Procedure, shortened: as §2

[12] = test system: barnyardgrass (Echinochloa crus-galli, ECHCG); assay: Post-emerge test, greenhouse herbicide activity screening; settings: post-emerge, 14 days after application, rating scale 0-100
Procedure, shortened: (§3)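 Sandy loam pots; pre-emerge: sown 1 d pre-spray, surface-watered after, then bottom-watered. Post-emerge: sown 8–21 d before, 2–3 leaf stage, + 0.25% v/v NIS, bottom-watered. Acetone, 187 l/ha track spray, 15–1000 g ai/ha. 0–100 injury score, day 14.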

[13] = test system: green foxtail (Setaria viridis, SETVI); assay: as above; settings: post-emerge, 14 days after application, rating scale 0-100
Procedure, shortened: as §3

[14] = test system: ivyleaf morningglory (Ipomoea hederacea, IPOHE); assay: as above; settings: post-emerge, 14 days after application, rating scale 0-100
Procedure, shortened: as §3

[15] = test system: johnsongrass (Sorghum halepense, SORHA); assay: as above; settings: post-emerge, 14 days after application, rating scale 0-100
Procedure, shortened: as §3

[16] = test system: large crabgrass (Digitaria sanguinalis, DIGSA); assay: as above; settings: post-emerge, 14 days after application, rating scale 0-100
Procedure, shortened: as §3

[17] = test system: redroot pigweed (Amaranthus retroflexus, AMARE); assay: as above; settings: post-emerge, 14 days after application, rating scale 0-100
Procedure, shortened: as §3

[18] = test system: sicklepod (Cassia obtusifolia, CASOB); assay: as above; settings: post-emerge, 14 days after application, rating scale 0-100
Procedure, shortened: as §3

[19] = test system: velvetleaf (Abutilon theophrasti, ABUTH); assay: as above; settings: post-emerge, 14 days after application, rating scale 0-100
Procedure, shortened: as §3

[20] = test system: field corn (Zea mays L., var. Dekalb 535, CORN); assay: Post-emerge test, crop safety; settings: post-emerge, 14 days after application, rating scale 0-100
Procedure, shortened: (§4)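 Rating: 0–100 visual injury, 14 DAA. Application: acetone, 187 l/ha, 15–1000 g ai/ha, flat-fan track sprayer with nozzle 40–45 cm above soil or canopy. Post-emerge runs used 0.25% v/v surfactant on 2–3 leaf plants.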

[21] = test system: upland rice (Oryza sp., var. Tebonnet, RICE); assay: Post-emerge test, crop safety; settings: post-emerge, 14 days after application, rating scale 0-100
Procedure, shortened: as §4

COc1c(Cl)cc(F)c(-n2c(=O)cc(C(F)(F)F)n(C)c2=O)c1NC(=O)COC(C)=O [2-117]
20: phytotoxicity rating CORN ([20]; 250 g ai/ha)
80: Pre-emerge Herbicidal Activity, phytotoxicity rating (0-100), CASOB ([8]; 63 g ai/ha) | phytotoxicity rating ABUTH ([19]; 63 g ai/ha)
0: phytotoxicity rating ECHCG ([12]; 63 g ai/ha) | phytotoxicity rating ECHCG ([12]; 250 g ai/ha) | phytotoxicity rating SETVI ([13]; 63 g ai/ha) | phytotoxicity rating SETVI ([13]; 250 g ai/ha) | phytotoxicity rating SORHA ([15]; 63 g ai/ha) | phytotoxicity rating SORHA ([15]; 250 g ai/ha) | phytotoxicity rating DIGSA ([16]; 63 g ai/ha) | phytotoxicity rating DIGSA ([16]; 250 g ai/ha)
10: Pre-emerge Herbicidal Activity, phytotoxicity rating (0-100), ECHCG ([2]; 63 g ai/ha) | Pre-emerge Herbicidal Activity, phytotoxicity rating (0-100), SORHA ([5]; 63 g ai/ha) | Pre-emerge phytotoxicity rating (0-100), crop damage, CORN ([10]; 63 g ai/ha) | phytotoxicity rating AMARE ([17]; 63 g ai/ha) | phytotoxicity rating RICE ([21]; 63 g ai/ha)
30: Pre-emerge Herbicidal Activity, phytotoxicity rating (0-100), SETVI ([3]; 63 g ai/ha) | Pre-emerge Herbicidal Activity, phytotoxicity rating (0-100), DIGSA ([7]; 63 g ai/ha) | Pre-emerge phytotoxicity rating (0-100), crop damage, RICE ([11]; 63 g ai/ha)
40: phytotoxicity rating CASOB ([18]; 63 g ai/ha) | phytotoxicity rating RICE ([21]; 250 g ai/ha)
35: Pre-emerge phytotoxicity rating (0-100), crop damage, CORN ([10]; 250 g ai/ha)
95: phytotoxicity rating CASOB ([18]; 250 g ai/ha)
100: Pre-emerge Herbicidal Activity, phytotoxicity rating (0-100), AMARE ([1]; 250 g ai/ha) | Pre-emerge Herbicidal Activity, phytotoxicity rating (0-100), SETVI ([3]; 250 g ai/ha) | Pre-emerge Herbicidal Activity, phytotoxicity rating (0-100), IPOHE ([4]; 63 g ai/ha) | Pre-emerge Herbicidal Activity, phytotoxicity rating (0-100), IPOHE ([4]; 250 g ai/ha) | Pre-emerge Herbicidal Activity, phytotoxicity rating (0-100), CHEAL ([6]; 63 g ai/ha) | Pre-emerge Herbicidal Activity, phytotoxicity rating (0-100), CHEAL ([6]; 250 g ai/ha) | Pre-emerge Herbicidal Activity, phytotoxicity rating (0-100), CASOB ([8]; 250 g ai/ha) | Pre-emerge Herbicidal Activity, phytotoxicity rating (0-100), ABUTH ([9]; 63 g ai/ha) | Pre-emerge Herbicidal Activity, phytotoxicity rating (0-100), ABUTH ([9]; 250 g ai/ha) | phytotoxicity rating IPOHE ([14]; 250 g ai/ha) | phytotoxicity rating ABUTH ([19]; 250 g ai/ha)
70: Pre-emerge Herbicidal Activity, phytotoxicity rating (0-100), ECHCG ([2]; 250 g ai/ha) | phytotoxicity rating AMARE ([17]; 250 g ai/ha)
60: Pre-emerge Herbicidal Activity, phytotoxicity rating (0-100), SORHA ([5]; 250 g ai/ha)
90: Pre-emerge Herbicidal Activity, phytotoxicity rating (0-100), AMARE ([1]; 63 g ai/ha) | Pre-emerge Herbicidal Activity, phytotoxicity rating (0-100), DIGSA ([7]; 250 g ai/ha) | Pre-emerge phytotoxicity rating (0-100), crop damage, RICE ([11]; 250 g ai/ha) | phytotoxicity rating IPOHE ([14]; 63 g ai/ha)
5: phytotoxicity rating CORN ([20]; 63 g ai/ha)
